Data on ten compounds can be found in ChEMBL document CHEMBL5584226, “α-Fluorination of tropane compounds and its impact on physicochemical and ADME properties” (Bioorg Med Chem Lett, 2024).

Data set [1] addresses Voltage-gated inwardly rectifying potassium channel KCNH2 (Homo sapiens, UniProt Q12809). The experiment in a line: Inhibition of hERG. The format is toxicity. In general terms: hERG is a cardiac potassium channel; its block is linked to QT prolongation.
Data set [2] can be described thus: Aqueous solubility of the compound in PBS buffer at pH 7.4. The format is physicochemical.
A short description of data set [3]: Microsomal stability in human liver microsomes assessed as parent compound remaining measured after 15 mins. It is filed as ADME, Microsome. The following applies: read-out: Stability. For orientation: Liver microsomes are vesicles of endoplasmic reticulum, rich in cytochrome P450 enzymes.
A further data set addresses P-gp (ABCB1) (Homo sapiens, UniProt P08183). Nature of the data set: Substrate activity at P-gp (unknown origin) assessed as efflux ratio. The following applies: not told. The format is ADME.
The nature of data set [4]: Aqueous solubility of the compound in JP1 at pH 1.2. It is filed as physicochemical. The note with it: JP1, pH 1.2.
Data set [5] has as its target Sodium channel protein type 5 subunit alpha (Homo sapiens, UniProt Q14524). The experiment in a line: Inhibition of Nav1.5 (unknown origin).
The nature of data set [6]: Permeability of the compound by PAMPA method. It is filed as ADME. The following applies: read-out: permeability. In general terms: In PAMPA a lipid-coated filter parts donor from acceptor wells.
Data set [7] is described as follows: Dissociation constant, pKa of the compound. The format is physicochemical.

Each structure is given as a SMILES string. Converted amounts (≈) assume the structure as drawn.

Chain of P-gp (ABCB1) (P08183 whole entry): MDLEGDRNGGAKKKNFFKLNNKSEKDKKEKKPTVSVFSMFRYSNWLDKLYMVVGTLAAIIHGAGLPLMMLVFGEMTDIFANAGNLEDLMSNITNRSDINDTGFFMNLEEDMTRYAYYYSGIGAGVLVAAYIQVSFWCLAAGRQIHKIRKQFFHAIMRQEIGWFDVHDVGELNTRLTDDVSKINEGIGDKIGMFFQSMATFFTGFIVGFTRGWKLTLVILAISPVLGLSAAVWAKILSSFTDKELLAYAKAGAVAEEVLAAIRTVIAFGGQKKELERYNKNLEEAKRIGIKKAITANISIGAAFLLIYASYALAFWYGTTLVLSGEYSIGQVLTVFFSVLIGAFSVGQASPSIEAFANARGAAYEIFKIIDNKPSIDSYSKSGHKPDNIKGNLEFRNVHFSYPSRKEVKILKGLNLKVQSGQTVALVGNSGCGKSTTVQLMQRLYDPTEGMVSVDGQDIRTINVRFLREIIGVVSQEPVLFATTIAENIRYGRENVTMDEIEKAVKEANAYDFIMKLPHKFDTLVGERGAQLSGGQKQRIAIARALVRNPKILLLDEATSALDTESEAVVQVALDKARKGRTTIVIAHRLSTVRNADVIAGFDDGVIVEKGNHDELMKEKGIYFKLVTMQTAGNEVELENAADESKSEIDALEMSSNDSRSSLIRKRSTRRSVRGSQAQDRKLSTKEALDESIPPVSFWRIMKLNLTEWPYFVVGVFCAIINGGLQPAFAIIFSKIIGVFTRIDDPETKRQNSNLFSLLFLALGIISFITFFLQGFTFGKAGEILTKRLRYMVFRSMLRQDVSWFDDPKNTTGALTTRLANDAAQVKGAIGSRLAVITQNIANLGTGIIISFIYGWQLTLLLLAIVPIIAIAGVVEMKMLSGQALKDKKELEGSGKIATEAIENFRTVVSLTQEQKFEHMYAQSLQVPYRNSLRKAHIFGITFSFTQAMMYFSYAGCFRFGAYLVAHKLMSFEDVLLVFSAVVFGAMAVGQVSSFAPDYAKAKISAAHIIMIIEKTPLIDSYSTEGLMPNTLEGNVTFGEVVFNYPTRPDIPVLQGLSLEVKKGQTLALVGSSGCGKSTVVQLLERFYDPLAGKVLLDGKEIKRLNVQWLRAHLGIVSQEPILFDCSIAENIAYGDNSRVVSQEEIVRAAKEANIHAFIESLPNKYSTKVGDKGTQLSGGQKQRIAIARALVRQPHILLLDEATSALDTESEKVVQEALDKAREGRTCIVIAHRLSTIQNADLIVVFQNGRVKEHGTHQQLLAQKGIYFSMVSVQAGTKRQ
Chain of Sodium channel protein type 5 subunit alpha (Q14524 whole entry): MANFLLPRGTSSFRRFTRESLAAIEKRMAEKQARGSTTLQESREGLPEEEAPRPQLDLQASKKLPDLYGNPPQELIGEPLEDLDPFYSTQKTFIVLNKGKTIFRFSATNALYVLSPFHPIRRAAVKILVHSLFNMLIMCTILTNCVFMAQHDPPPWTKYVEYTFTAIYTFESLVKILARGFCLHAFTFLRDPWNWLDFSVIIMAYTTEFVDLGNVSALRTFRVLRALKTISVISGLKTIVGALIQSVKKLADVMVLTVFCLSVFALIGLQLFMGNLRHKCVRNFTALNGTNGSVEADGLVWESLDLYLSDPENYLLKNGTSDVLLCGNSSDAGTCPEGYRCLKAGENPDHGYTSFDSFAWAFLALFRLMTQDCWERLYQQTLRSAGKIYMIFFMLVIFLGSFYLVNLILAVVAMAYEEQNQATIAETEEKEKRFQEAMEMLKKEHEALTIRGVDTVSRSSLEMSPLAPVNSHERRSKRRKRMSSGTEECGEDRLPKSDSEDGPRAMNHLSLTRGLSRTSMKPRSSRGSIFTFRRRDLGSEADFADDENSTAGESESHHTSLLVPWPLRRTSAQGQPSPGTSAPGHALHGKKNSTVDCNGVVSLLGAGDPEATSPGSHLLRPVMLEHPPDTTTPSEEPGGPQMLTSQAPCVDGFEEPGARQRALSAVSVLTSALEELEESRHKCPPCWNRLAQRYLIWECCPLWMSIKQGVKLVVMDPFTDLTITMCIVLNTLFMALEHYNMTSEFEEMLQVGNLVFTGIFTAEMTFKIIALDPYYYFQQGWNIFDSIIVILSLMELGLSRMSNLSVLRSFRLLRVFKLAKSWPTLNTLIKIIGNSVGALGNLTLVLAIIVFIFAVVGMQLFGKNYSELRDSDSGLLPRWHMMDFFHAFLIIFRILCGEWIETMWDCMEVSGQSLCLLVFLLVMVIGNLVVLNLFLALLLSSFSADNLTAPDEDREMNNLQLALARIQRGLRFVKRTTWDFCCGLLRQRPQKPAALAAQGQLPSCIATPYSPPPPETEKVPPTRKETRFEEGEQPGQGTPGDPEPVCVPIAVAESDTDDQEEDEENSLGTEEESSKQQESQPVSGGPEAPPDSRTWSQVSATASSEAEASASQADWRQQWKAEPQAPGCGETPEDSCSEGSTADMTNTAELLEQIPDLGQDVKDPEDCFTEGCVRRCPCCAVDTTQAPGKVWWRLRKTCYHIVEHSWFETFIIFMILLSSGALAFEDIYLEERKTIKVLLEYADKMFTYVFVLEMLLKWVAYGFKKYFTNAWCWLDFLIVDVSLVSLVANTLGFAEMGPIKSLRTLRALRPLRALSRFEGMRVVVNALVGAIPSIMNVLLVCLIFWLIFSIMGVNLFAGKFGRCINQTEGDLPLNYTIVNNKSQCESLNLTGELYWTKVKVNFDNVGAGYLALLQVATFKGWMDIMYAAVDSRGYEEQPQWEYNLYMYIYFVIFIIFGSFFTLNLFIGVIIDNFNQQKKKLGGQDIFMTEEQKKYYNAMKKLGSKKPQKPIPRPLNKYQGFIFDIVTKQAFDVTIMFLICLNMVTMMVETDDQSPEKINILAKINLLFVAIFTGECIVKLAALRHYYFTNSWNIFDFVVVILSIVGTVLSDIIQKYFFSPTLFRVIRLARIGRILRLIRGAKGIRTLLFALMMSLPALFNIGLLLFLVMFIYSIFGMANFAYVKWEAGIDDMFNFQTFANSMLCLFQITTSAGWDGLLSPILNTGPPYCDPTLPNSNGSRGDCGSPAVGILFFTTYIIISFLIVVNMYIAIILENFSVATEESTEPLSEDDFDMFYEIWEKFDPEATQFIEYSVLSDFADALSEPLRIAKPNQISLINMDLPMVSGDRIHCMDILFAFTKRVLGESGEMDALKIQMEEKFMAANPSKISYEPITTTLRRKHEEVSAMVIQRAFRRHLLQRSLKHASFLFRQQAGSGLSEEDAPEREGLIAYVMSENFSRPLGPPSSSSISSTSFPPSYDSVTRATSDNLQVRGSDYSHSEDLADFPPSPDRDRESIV
Chain of Voltage-gated inwardly rectifying potassium channel KCNH2 (Q12809 whole entry): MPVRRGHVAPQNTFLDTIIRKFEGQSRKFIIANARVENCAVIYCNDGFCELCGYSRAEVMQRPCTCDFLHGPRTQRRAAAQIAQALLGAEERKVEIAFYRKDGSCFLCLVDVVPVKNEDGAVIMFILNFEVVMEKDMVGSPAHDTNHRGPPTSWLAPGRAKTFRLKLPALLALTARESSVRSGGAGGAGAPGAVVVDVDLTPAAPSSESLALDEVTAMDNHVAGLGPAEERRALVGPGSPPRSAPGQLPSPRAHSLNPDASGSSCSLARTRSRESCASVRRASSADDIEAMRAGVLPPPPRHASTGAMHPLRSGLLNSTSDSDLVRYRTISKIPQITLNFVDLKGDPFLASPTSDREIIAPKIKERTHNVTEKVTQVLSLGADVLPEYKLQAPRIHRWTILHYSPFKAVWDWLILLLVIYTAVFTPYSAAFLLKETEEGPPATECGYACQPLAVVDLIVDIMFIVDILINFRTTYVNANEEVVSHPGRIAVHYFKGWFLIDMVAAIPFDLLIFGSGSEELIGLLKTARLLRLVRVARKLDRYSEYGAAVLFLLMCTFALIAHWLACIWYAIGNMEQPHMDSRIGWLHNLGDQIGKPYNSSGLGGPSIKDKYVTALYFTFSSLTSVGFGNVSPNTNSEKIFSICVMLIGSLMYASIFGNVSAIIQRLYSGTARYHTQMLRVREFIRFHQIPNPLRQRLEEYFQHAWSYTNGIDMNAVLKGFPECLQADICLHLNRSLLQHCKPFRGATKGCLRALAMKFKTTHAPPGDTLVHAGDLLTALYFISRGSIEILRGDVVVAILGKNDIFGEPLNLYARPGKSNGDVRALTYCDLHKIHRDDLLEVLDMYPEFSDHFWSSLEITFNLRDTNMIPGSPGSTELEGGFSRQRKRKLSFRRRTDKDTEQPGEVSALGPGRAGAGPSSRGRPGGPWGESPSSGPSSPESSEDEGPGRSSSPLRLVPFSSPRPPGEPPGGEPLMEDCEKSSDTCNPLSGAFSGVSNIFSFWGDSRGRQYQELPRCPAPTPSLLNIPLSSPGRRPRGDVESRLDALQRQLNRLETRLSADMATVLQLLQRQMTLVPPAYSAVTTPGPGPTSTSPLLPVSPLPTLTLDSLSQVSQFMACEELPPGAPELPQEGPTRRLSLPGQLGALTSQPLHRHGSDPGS

What is called IC50 is the concentration that inhibits the measured activity by half. The low end stands for greater potency, the high end for weaker potency. As usually defined, the solubility is the concentration that dissolves in the medium under given conditions. The low end stands for a poorly soluble substance, the high end for a readily soluble substance. What is called efflux ratio is a quotient of directional permeabilities that is used to spot active efflux. For `O=c1n(CC(F)CN2C3CCC2CC(OCc2ccccc2F)C3)nc2n1CCC2` (stereo not drawn), the half-inhibitory concentration (IC50) stood at 22.2 µM in data set [1] and 13.4 µM in data set [5]. The solubility in data set [2] was found to be 82 µM (≈ 34.3 µg/mL); in data set [4], 79 µM (≈ 33.1 µg/mL). In addition, in data set [3], the remaining at 0.25 h worked out at 92.3%. Further, at P-gp (ABCB1), the efflux ratio came out at 2.52. In data set [6], the Papp stood at 4.44 ×10⁻⁶ cm/s.

As usually defined, the pKa is the negative logarithm of the acid dissociation constant. In the case of `O=c1n(CC(F)CN2C3CCC2CC(OCc2ccccc2F)C3)nc2ccccn12` (stereo not drawn), the half-maximal inhibitory concentration (IC50) was 1.8 µM in data set [1] and 17.8 µM in data set [5]. Besides, the solubility is 82 µM (≈ 35.1 µg/mL) in data set [2] and no less than 100 µM in data set [4]. The remaining at 0.25 h in data set [3] came to 66.9%. Besides, the efflux ratio on P-gp (ABCB1) amounted to 1.27. For the same compound, the pKa in data set [7] turned out to be 8.1. Further, in data set [6], the Papp amounted to 10.6 ×10⁻⁶ cm/s.

In the case of `O=c1n(CCCN2C3CCC2CC(OCc2ccccc2F)C3)nc2n1CCC2` (stereo not drawn), the 50% inhibitory concentration (IC50) in data set [1] stood at 5.2 µM; in data set [5], 5.9 µM. In addition, the solubility in data set [2] and in data set [4] was no less than 100 µM throughout. The remaining at 0.25 h in data set [3] worked out at 95.8%. Besides, on P-gp (ABCB1), the efflux ratio came to 19.4. The Papp in data set [6] turned out to be 1.62 ×10⁻⁶ cm/s.

In the case of `O=c1n(CCCN2C3CCC2(F)CC(OCc2ccccc2F)C3)nc2ccccn12` (stereo not drawn), the values for the half-inhibitory concentration (IC50) in data set [1] and in data set [5] were 7.6 µM and greater than 30 µM, respectively. The solubility in data set [2] is 73 µM (≈ 31.3 µg/mL); in data set [4], no less than 100 µM. The remaining at 0.25 h in data set [3] amounted to 10.7%. Besides, the efflux ratio at P-gp (ABCB1) was 0.96. The same compound registered a pKa in data set [7] of 5.4. Besides, the Papp in data set [6] came to 10.6 ×10⁻⁶ cm/s.

Regarding `O=c1n(CC(O)CN2C3CCC2CC(OCc2ccccc2F)C3)nc2n1CCC2` (stereo not drawn), the IC50 came out at 19.7 µM in data set [1] and 12.9 µM in data set [5]. Besides, the solubility was 94 µM (≈ 39.2 µg/mL) in data set [2] and no less than 100 µM in data set [4]. Besides, the remaining at 0.25 h in data set [3] worked out at 99.8%. Further, the efflux ratio on P-gp (ABCB1) worked out at 9.16. For the same compound, the Papp in data set [6] was found to be 0.46 ×10⁻⁶ cm/s.

On to `O=c1n(CCCN2C3CCC2CC(COc2ccccc2F)C3)nc2ccccn12` (stereo not drawn), for which the half-maximal inhibitory concentration (IC50) stood at 0.07 µM in data set [1] and 6 µM in data set [5]. Also, the solubility in data set [2] was 95 µM (≈ 39 µg/mL); in data set [4] it was no less than 100 µM. In addition, the remaining at 0.25 h in data set [3] turned out to be 45.6%. In addition, on P-gp (ABCB1), the efflux ratio is 3.07. The Papp in data set [6] turned out to be 4.86 ×10⁻⁶ cm/s.

Regarding `O=c1n(CC(O)CN2C3CCC2CC(OCc2ccccc2F)C3)nc2ccccn12` (stereo not drawn), the half-maximal inhibitory concentration (IC50) in data set [1] was 1.2 µM; in data set [5], 11.9 µM. Moreover, the solubility in data set [2] is 95 µM (≈ 40.5 µg/mL); in data set [4], no less than 100 µM. Besides, the remaining at 0.25 h in data set [3] was 82%. The efflux ratio at P-gp (ABCB1) turned out to be 6.36. Further, the Papp in data set [6] turned out to be 2.16 ×10⁻⁶ cm/s.

`O=c1n(CCCN2C3CCC2(F)CC(OCc2ccccc2F)C3)nc2n1CCC2` (stereo not drawn): the IC50 in data set [1] and in data set [5] was greater than 30 µM throughout. The figures for the solubility in data set [2] and in data set [4] were 96 µM (≈ 40.2 µg/mL) and no less than 100 µM, respectively. Besides, the remaining at 0.25 h in data set [3] worked out at 31.8%. Further, at P-gp (ABCB1), the efflux ratio is 1.39. Further, the Papp in data set [6] was 7.78 ×10⁻⁶ cm/s.

Regarding `O=c1n(CCCN2C3CCC2CC(OCc2ccccc2F)C3)nc2ccccn12` (stereo not drawn), the values for the IC50 in data set [1] and in data set [5] were 0.11 µM and 3 µM, respectively. In addition, the solubility in data set [2] is 99 µM (≈ 40.6 µg/mL); in data set [4], no less than 100 µM. Besides, in data set [3], the remaining at 0.25 h is 70.9%. In addition, on P-gp (ABCB1), the efflux ratio is 3.39. The compound also yielded a pKa in data set [7] of 8.7. The Papp in data set [6] worked out at 4.93 ×10⁻⁶ cm/s.

As to `O=c1n(CCCN2C3CCC2(F)CC(COc2ccccc2F)C3)nc2ccccn12` (racemic), the IC50 in data set [1] and in data set [5] was greater than 30 µM each time. The values for the solubility in data set [2] and in data set [4] were 61 µM (≈ 26.1 µg/mL) and no less than 100 µM, respectively. In data set [3], the remaining at 0.25 h came to 34.7%. For the same compound, on P-gp (ABCB1), the efflux ratio came out at 1.34. Further, the Papp in data set [6] stood at 11.1 ×10⁻⁶ cm/s.
